The first data set in a line: The drug is tested on Bifidobacterium longum subsp. Infantis strain: CCUG52486 for biotransformation. The drug concentrations were measured before and after a 12-h incubation by liquid-chromatography-coupled mass spectrometry (LC–MS). The conditions noted are these: 2 µM.
For the molecule `COc1ccnc(C[S+]([O-])c2nc3ccc(OC(F)F)cc3[nH]2)c1OC` (stereo not given) [PANTOPRAZOLE], the “Bacterial Biotransformation” value is reported as “Compound metabolized”.

Turning to `CCN(CC)CCOCCOC(=O)C1(c2ccccc2)CCCC1.O=C(O)CC(O)(CC(=O)O)C(=O)O` [CARBETAPENTANE CITRATE], the “Bacterial Biotransformation” value is “Compound metabolized”.

The next data set in a line: The drug is tested on Collinsella aerofaciens strain: ATCC25986 for biotransformation. The drug concentrations were measured before and after a 12-h incubation by liquid-chromatography-coupled mass spectrometry (LC–MS). The conditions noted are these: 2 µM.
In the case of `COc1ccnc(C[S+]([O-])c2nc3ccc(OC(F)F)cc3[nH]2)c1OC` (stereo not given) [PANTOPRAZOLE], the “Bacterial Biotransformation” value is recorded as “Compound metabolized”.

`CCN(CC)CCOCCOC(=O)C1(c2ccccc2)CCCC1.O=C(O)CC(O)(CC(=O)O)C(=O)O` [CARBETAPENTANE CITRATE]: the “Bacterial Biotransformation” value is “Compound metabolized”.

Another data set is described as follows: The drug is tested on Bacteroides caccae strain: ATCC43185 for biotransformation. The drug concentrations were measured before and after a 12-h incubation by liquid-chromatography-coupled mass spectrometry (LC–MS). The conditions noted are these: 2 µM.
In the case of `COc1ccnc(C[S+]([O-])c2nc3ccc(OC(F)F)cc3[nH]2)c1OC` (stereo not given) [PANTOPRAZOLE], the “Bacterial Biotransformation” value is reported as “Compound metabolized”.

Regarding `CCN(CC)CCOCCOC(=O)C1(c2ccccc2)CCCC1.O=C(O)CC(O)(CC(=O)O)C(=O)O` [CARBETAPENTANE CITRATE], the “Bacterial Biotransformation” value is “Compound metabolized”.

A short description of a further data set: The drug is tested on Bacteroides finegoldii strain: DSM17565 for biotransformation. The drug concentrations were measured before and after a 12-h incubation by liquid-chromatography-coupled mass spectrometry (LC–MS). As to conditions: 2 µM.
In the case of `COc1ccnc(C[S+]([O-])c2nc3ccc(OC(F)F)cc3[nH]2)c1OC` (stereo not given) [PANTOPRAZOLE], the “Bacterial Biotransformation” value is listed as “Compound metabolized”.

For `CCN(CC)CCOCCOC(=O)C1(c2ccccc2)CCCC1.O=C(O)CC(O)(CC(=O)O)C(=O)O` [CARBETAPENTANE CITRATE], the “Bacterial Biotransformation” value is given as “Compound metabolized”.

A further data set in a line: The drug is tested on Bacteroides fragilis strain: HMW615 for biotransformation. The drug concentrations were measured before and after a 12-h incubation by liquid-chromatography-coupled mass spectrometry (LC–MS). As to conditions: 2 µM.
As to `COc1ccnc(C[S+]([O-])c2nc3ccc(OC(F)F)cc3[nH]2)c1OC` (stereo not given) [PANTOPRAZOLE], the “Bacterial Biotransformation” value is “Compound metabolized”.

Turning to `CCN(CC)CCOCCOC(=O)C1(c2ccccc2)CCCC1.O=C(O)CC(O)(CC(=O)O)C(=O)O` [CARBETAPENTANE CITRATE], the “Bacterial Biotransformation” value was “Compound NOT metabolized”.

The nature of a further data set: The drug is tested on Bacteroides fragilis strain: ATCC43859 for biotransformation. The drug concentrations were measured before and after a 12-h incubation by liquid-chromatography-coupled mass spectrometry (LC–MS). The conditions noted are these: 2 µM.
With `COc1ccnc(C[S+]([O-])c2nc3ccc(OC(F)F)cc3[nH]2)c1OC` (stereo not given) [PANTOPRAZOLE], the “Bacterial Biotransformation” value is reported as “Compound metabolized”.

Regarding `CCN(CC)CCOCCOC(=O)C1(c2ccccc2)CCCC1.O=C(O)CC(O)(CC(=O)O)C(=O)O` [CARBETAPENTANE CITRATE], the “Bacterial Biotransformation” value was “Compound NOT metabolized”.

A short description of a further data set: The drug is tested on Bacteroides xylanisolvens strain: DSM18836 for biotransformation. The drug concentrations were measured before and after a 12-h incubation by liquid-chromatography-coupled mass spectrometry (LC–MS). The conditions noted are these: 2 µM.
For the molecule `COc1ccnc(C[S+]([O-])c2nc3ccc(OC(F)F)cc3[nH]2)c1OC` (stereo not given) [PANTOPRAZOLE], the “Bacterial Biotransformation” value was “Compound metabolized”.

On to `CCN(CC)CCOCCOC(=O)C1(c2ccccc2)CCCC1.O=C(O)CC(O)(CC(=O)O)C(=O)O` [CARBETAPENTANE CITRATE], for which the “Bacterial Biotransformation” value was “Compound metabolized”.

The nature of another data set: The drug is tested on Odoribacter splanchnicus strain: fecal isolate for biotransformation. The drug concentrations were measured before and after a 12-h incubation by liquid-chromatography-coupled mass spectrometry (LC–MS). The conditions noted are these: 2 µM.
Regarding `COc1ccnc(C[S+]([O-])c2nc3ccc(OC(F)F)cc3[nH]2)c1OC` (stereo not given) [PANTOPRAZOLE], the “Bacterial Biotransformation” value was “Compound metabolized”.

In the case of `CCN(CC)CCOCCOC(=O)C1(c2ccccc2)CCCC1.O=C(O)CC(O)(CC(=O)O)C(=O)O` [CARBETAPENTANE CITRATE], the “Bacterial Biotransformation” value is given as “Compound metabolized”.

A further data set can be described thus: The drug is tested on Clostridium scindens strain: ATCC35704 for biotransformation. The drug concentrations were measured before and after a 12-h incubation by liquid-chromatography-coupled mass spectrometry (LC–MS). The conditions noted are these: 2 µM.
With `COc1ccnc(C[S+]([O-])c2nc3ccc(OC(F)F)cc3[nH]2)c1OC` (stereo not given) [PANTOPRAZOLE], the “Bacterial Biotransformation” value is listed as “Compound metabolized”.

Turning to `CCN(CC)CCOCCOC(=O)C1(c2ccccc2)CCCC1.O=C(O)CC(O)(CC(=O)O)C(=O)O` [CARBETAPENTANE CITRATE], the “Bacterial Biotransformation” value is given as “Compound metabolized”.

A short description of another data set: The drug is tested on Clostridium sporogenes strain: ATCC15579 for biotransformation. The drug concentrations were measured before and after a 12-h incubation by liquid-chromatography-coupled mass spectrometry (LC–MS). As to conditions: 2 µM.
Consider `COc1ccnc(C[S+]([O-])c2nc3ccc(OC(F)F)cc3[nH]2)c1OC` (stereo not given) [PANTOPRAZOLE], for which the “Bacterial Biotransformation” value is “Compound metabolized”.

Consider `CCN(CC)CCOCCOC(=O)C1(c2ccccc2)CCCC1.O=C(O)CC(O)(CC(=O)O)C(=O)O` [CARBETAPENTANE CITRATE], for which the “Bacterial Biotransformation” value is on record as “Compound metabolized”.

A further data set in a line: The drug is tested on Coprococcus comes strain: ATCC27758 for biotransformation. The drug concentrations were measured before and after a 12-h incubation by liquid-chromatography-coupled mass spectrometry (LC–MS). Type of data set: ADME. The arrangement: dose 2 uM, timepoint 0 vs 12 hours. The conditions noted are these: 2 µM.
Regarding `COc1ccnc(C[S+]([O-])c2nc3ccc(OC(F)F)cc3[nH]2)c1OC` (stereo not given) [PANTOPRAZOLE], the “Bacterial Biotransformation” value is recorded as “Compound metabolized”.

On to `CCN(CC)CCOCCOC(=O)C1(c2ccccc2)CCCC1.O=C(O)CC(O)(CC(=O)O)C(=O)O` [CARBETAPENTANE CITRATE], for which the “Bacterial Biotransformation” value is given as “Compound metabolized”.

Another data set can be described thus: The drug is tested on Eubacterium hallii strain: DSM3353 for biotransformation. The drug concentrations were measured before and after a 12-h incubation by liquid-chromatography-coupled mass spectrometry (LC–MS). As to conditions: anaerobutyricum hallii, 2 µM.
For the molecule `COc1ccnc(C[S+]([O-])c2nc3ccc(OC(F)F)cc3[nH]2)c1OC` (stereo not given) [PANTOPRAZOLE], the “Bacterial Biotransformation” value was “Compound metabolized”.

In the case of `CCN(CC)CCOCCOC(=O)C1(c2ccccc2)CCCC1.O=C(O)CC(O)(CC(=O)O)C(=O)O` [CARBETAPENTANE CITRATE], the “Bacterial Biotransformation” value is reported as “Compound metabolized”.

Another data set in a line: The drug is tested on Ruminococcus lactaris strain: ATCC29176 for biotransformation. The drug concentrations were measured before and after a 12-h incubation by liquid-chromatography-coupled mass spectrometry (LC–MS). As to conditions: 2 µM.
On to `COc1ccnc(C[S+]([O-])c2nc3ccc(OC(F)F)cc3[nH]2)c1OC` (stereo not given) [PANTOPRAZOLE], for which the “Bacterial Biotransformation” value was “Compound metabolized”.

Consider `CCN(CC)CCOCCOC(=O)C1(c2ccccc2)CCCC1.O=C(O)CC(O)(CC(=O)O)C(=O)O` [CARBETAPENTANE CITRATE], for which the “Bacterial Biotransformation” value is recorded as “Compound NOT metabolized”.

Another data set in a line: The drug is tested on Enterobacter cancerogenus strain: ATCC35316 for biotransformation. The drug concentrations were measured before and after a 12-h incubation by liquid-chromatography-coupled mass spectrometry (LC–MS). The conditions noted are these: 2 µM.
On to `COc1ccnc(C[S+]([O-])c2nc3ccc(OC(F)F)cc3[nH]2)c1OC` (stereo not given) [PANTOPRAZOLE], for which the “Bacterial Biotransformation” value was “Compound metabolized”.

For the molecule `CCN(CC)CCOCCOC(=O)C1(c2ccccc2)CCCC1.O=C(O)CC(O)(CC(=O)O)C(=O)O` [CARBETAPENTANE CITRATE], the “Bacterial Biotransformation” value is reported as “Compound metabolized”.

A further data set is described as follows: The drug is tested on Providencia rettgeri strain: DSM1131 for biotransformation. The drug concentrations were measured before and after a 12-h incubation by liquid-chromatography-coupled mass spectrometry (LC–MS). Type of data set: ADME. More on the design: dose 2 uM, timepoint 0 vs 12 hours. As to conditions: 2 µM.
For `COc1ccnc(C[S+]([O-])c2nc3ccc(OC(F)F)cc3[nH]2)c1OC` (stereo not given) [PANTOPRAZOLE], the “Bacterial Biotransformation” value was “Compound metabolized”.

For `CCN(CC)CCOCCOC(=O)C1(c2ccccc2)CCCC1.O=C(O)CC(O)(CC(=O)O)C(=O)O` [CARBETAPENTANE CITRATE], the “Bacterial Biotransformation” value was “Compound metabolized”.

The conditions of a further data set: bacteroides fragilis, 12 h, 2 µM.
Description: The drug is tested on Bacteroides fragilis strain: 3397 (T10) for biotransformation. The drug concentrations were measured before and after a 12-h incubation by liquid-chromatography-coupled mass spectrometry (LC–MS)
For the molecule `COc1ccnc(C[S+]([O-])c2nc3ccc(OC(F)F)cc3[nH]2)c1OC` (stereo not given) [PANTOPRAZOLE], the “Bacterial Biotransformation” value is recorded as “Compound metabolized”.

With `CCN(CC)CCOCCOC(=O)C1(c2ccccc2)CCCC1.O=C(O)CC(O)(CC(=O)O)C(=O)O` [CARBETAPENTANE CITRATE], the “Bacterial Biotransformation” value is “Compound metabolized”.

For a further data set the following is noted: bacteroides intestinalis, 12 h, 2 µM.
Description: The drug is tested on Bacteroides intestinalis strain: DSM17393 for biotransformation. The drug concentrations were measured before and after a 12-h incubation by liquid-chromatography-coupled mass spectrometry (LC–MS)
In the case of `COc1ccnc(C[S+]([O-])c2nc3ccc(OC(F)F)cc3[nH]2)c1OC` (stereo not given) [PANTOPRAZOLE], the “Bacterial Biotransformation” value was “Compound metabolized”.

For the molecule `CCN(CC)CCOCCOC(=O)C1(c2ccccc2)CCCC1.O=C(O)CC(O)(CC(=O)O)C(=O)O` [CARBETAPENTANE CITRATE], the “Bacterial Biotransformation” value is recorded as “Compound metabolized”.

The conditions of a further data set: bacteroides thetaiotaomicron, 12 h, 2 µM.
Description: The drug is tested on Bacteroides thetaiotaomicron strain: 3731 for biotransformation. The drug concentrations were measured before and after a 12-h incubation by liquid-chromatography-coupled mass spectrometry (LC–MS)
Regarding `COc1ccnc(C[S+]([O-])c2nc3ccc(OC(F)F)cc3[nH]2)c1OC` (stereo not given) [PANTOPRAZOLE], the “Bacterial Biotransformation” value is “Compound metabolized”.

In the case of `CCN(CC)CCOCCOC(=O)C1(c2ccccc2)CCCC1.O=C(O)CC(O)(CC(=O)O)C(=O)O` [CARBETAPENTANE CITRATE], the “Bacterial Biotransformation” value is “Compound metabolized”.

For another data set the following is noted: parabacteroides distasonis, 12 h, 2 µM.
Description: The drug is tested on Parabacteroides distasonis strain: ATCC8503 for biotransformation. The drug concentrations were measured before and after a 12-h incubation by liquid-chromatography-coupled mass spectrometry (LC–MS)
Consider `COc1ccnc(C[S+]([O-])c2nc3ccc(OC(F)F)cc3[nH]2)c1OC` (stereo not given) [PANTOPRAZOLE], for which the “Bacterial Biotransformation” value is recorded as “Compound metabolized”.

In the case of `CCN(CC)CCOCCOC(=O)C1(c2ccccc2)CCCC1.O=C(O)CC(O)(CC(=O)O)C(=O)O` [CARBETAPENTANE CITRATE], the “Bacterial Biotransformation” value is listed as “Compound metabolized”.

For the next data set the following is noted: anaerostipes sp., 12 h, 2 µM.
Description: The drug is tested on Anaerostipes sp. strain: fecal isolate for biotransformation. The drug concentrations were measured before and after a 12-h incubation by liquid-chromatography-coupled mass spectrometry (LC–MS)
Regarding `COc1ccnc(C[S+]([O-])c2nc3ccc(OC(F)F)cc3[nH]2)c1OC` (stereo not given) [PANTOPRAZOLE], the “Bacterial Biotransformation” value is recorded as “Compound metabolized”.

Take `CCN(CC)CCOCCOC(=O)C1(c2ccccc2)CCCC1.O=C(O)CC(O)(CC(=O)O)C(=O)O` [CARBETAPENTANE CITRATE]: the “Bacterial Biotransformation” value is on record as “Compound metabolized”.

The values above are taken from ChEMBL document CHEMBL5303573, “Mapping human microbiome drug metabolism by gut bacteria and their genes” (Nature, 2019).
